molecular target: T1, human c-Src (Homo sapiens, UniProt P12931); assay: Src kinase inhibition, luciferase-based residual ATP (KinaseGlo); format: biochemical; details: recombinant human c-Src, ATP 3 μM, PTK2 substrate, 90 minutes at room temperature
T1 construct: purchased Panvera/Invitrogen
Protocol: The ability of compounds of the present invention to inhibit the activity of three groups of kinases was tested. Kinases tested included the src family (primarily src and yes), the angiogenic growth factors receptors (FGFR1, PDGFRb and VEGFR2) and the ephrin, EphB4. All kinase reactions were conducted in 96-well plates with a final reaction volume of 50 ul.
Recombinant human c-Src or Yes (28 ng/well, Panvera/Invitrogen, Madison Wis.), ATP (3 μM), a tyrosine kinase substrate (PTK2, 250 μM, Promega Corp., Madison Wis.), and test agents (at concentrations ranging from about 1 nM/l to about 100 μM/1), in the presence of Src kinase reaction buffer (Upstate USA, Lake Placid N.Y.). After reacting for about 90 minutes at room temperature, residual ATP was determined using a luciferase-based assay (KinaseGlo, Promega Corp.) as a measure of kinase activity. Data from four wells were then averaged and used to determine IC50 values for the test compounds (Prism software package, GraphPad Software, San Diego Calif.).

T1 sequence (P12931 whole entry): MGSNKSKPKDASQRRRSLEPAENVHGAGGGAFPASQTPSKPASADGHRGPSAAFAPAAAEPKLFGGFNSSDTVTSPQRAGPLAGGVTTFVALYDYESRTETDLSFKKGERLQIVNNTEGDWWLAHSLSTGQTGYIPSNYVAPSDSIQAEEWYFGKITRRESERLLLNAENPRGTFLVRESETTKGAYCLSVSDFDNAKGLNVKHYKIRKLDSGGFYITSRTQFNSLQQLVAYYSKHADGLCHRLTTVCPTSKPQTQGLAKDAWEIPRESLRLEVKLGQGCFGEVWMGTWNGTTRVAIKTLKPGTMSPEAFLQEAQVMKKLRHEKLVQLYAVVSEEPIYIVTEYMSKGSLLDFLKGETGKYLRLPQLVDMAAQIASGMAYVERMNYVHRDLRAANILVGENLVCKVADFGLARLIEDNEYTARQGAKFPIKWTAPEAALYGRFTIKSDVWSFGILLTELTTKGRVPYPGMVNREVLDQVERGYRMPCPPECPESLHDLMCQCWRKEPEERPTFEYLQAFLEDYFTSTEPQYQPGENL

| IC50 [nM] | Compound |
| --- | --- |
| 3000 | Cc1nc(Nc2ncc(NC(=O)c3c(Cl)cccc3Cl)cn2)cc(N2CCN(CCO)CC2)n1 [LIII, 2,6-Dichloro-N-(2-{6-[4-(2-hydroxy-ethyl)-piperazin-1-yl]-2-methyl-pyrimidin-4-ylamino}-pyrimidin-5-yl)-benzamide] |
| > 10000 | N#Cc1cccc(C(=O)Nc2cnc(Nc3ccc(S(=O)(=O)CCCN4CCCC4)cc3)nc2)c1 [XXXI, 3-Cyano-N-{2-[4-(3-pyrrolidin-1-yl-propane-1-sulfonyl)-phenylamino]-pyrimidin-5-yl}-benzamide] |
| 400 | O=C(Nc1cnc(Nc2ccc(C(=O)N3CCN(CCO)CC3)nc2)nc1)c1c(Cl)cccc1Cl [II, 2,6-Dichloro-N-(2-{6-[4-(2-hydroxy-ethyl)-piperazine-1-carbonyl]-pyridin-3-ylamino}-pyrimidin-5-yl)-benzamide] |
| 27 | O=C(Nc1cnc(Nc2ccc(OCCN3CCCC3)cc2)nc1)c1cc(O)ccc1Cl [XXXVIII, N-(2-(4-(2-(Pyrrolidin-1-yl)ethoxy)phenylamino)pyrimidin-5-yl)-2-chloro-5-hydroxybenzamide] |
| 183 | Cc1cccc(C)c1C(=O)Nc1cnc(Nc2ccc(C(=O)N3CCNCC3)cc2)nc1 [L, 2,6-Dimethyl-N-{2-[4-(piperazine-1-carbonyl)-phenylamino]-pyrimidin-5-yl}-benzamide] |
| 223 | Cc1cccc(C)c1C(=O)Nc1cnc(Nc2ccc(C(=O)N3CCN(C)CC3)cc2)nc1 [XV, 2,6-Dimethyl-N-{2-[4-(4-methyl-piperazine-1-carbonyl)-phenylamino]-pyrimidin-5-yl}-benzamide] |
| 20 | O=C(NCCN1CCCC1)c1csc(Nc2ncc(NC(=O)c3cc(O)ccc3Cl)cn2)n1 [XVIII, 2-[5-(2-Chloro-5-hydroxy-benzoylamino)-pyrimidin-2-ylamino]-thiazole-4-carboxylic acid (2-pyrrolidin-1-yl-ethyl)-amide] |
| 12 | O=C(Nc1cnc(Nc2ccc(C(=O)N3CCNCC3)cc2)nc1)c1cc(O)ccc1Cl [LI, 2-Chloro-5-hydroxy-N-{2-[4-(piperazine-1-carbonyl)-phenylamino]-Pyrimidin-5-yl}-benzamide] |
| 117 | Cc1cccc(C)c1C(=O)Nc1cnc(Nc2ccc(C(=O)NCCN3CCCC3)cc2)nc1 [XXIX, 2,6-Dimethyl-N-{2-[4-(2-pyrrolidin-1-yl-ethylcarbamoyl)-phenylamino]-pyrimidin-5-yl}-benzamide] |
| 43 | CC(C)N(CCO)C(=O)c1ccc(Nc2ncc(NC(=O)c3cc(O)ccc3Cl)cn2)cc1 [XXII, 2-Chloro-5-hydroxy-N-(2-{4-[(2-hydroxy-ethyl)-isopropyl-carbamoyl]-phenylamino}-pyrimidin-5-yl)-benzamide] |
| 13 | O=C(NCCN1CCCC1)c1ccc(Nc2ncc(NC(=O)c3cc(O)ccc3Cl)cn2)cn1 [IX, 5-[5-(2-Chloro-5-hydroxy-benzoylamino)-pyrimidin-2-ylamino]-Pyridine-2-carboxylic acid (2-pyrrolidin-1-yl-ethyl)-amide] |
| 9.8 | O=C(Nc1cnc(Nc2ccc(S(=O)(=O)CCCN3CCCC3)cc2)nc1)c1cc(O)ccc1Cl [XXXII, 2-Chloro-5-hydroxy-N-{2-[4-(3-pyrrolidin-1-yl-propane-1-sulfonyl)-phenylamino]-pyrimidin-5-yl}-benzamide] |
| 99 | Cc1cccc(C)c1C(=O)Nc1cnc(Nc2cccc(OCCN3CCCC3)c2)nc1 [XLIII, N-(2-(3-(2-(Pyrrolidin-1-yl)ethoxy)phenylamino)pyrimidin-5-yl)-2,6-dimethylbenzamide] |
| 13 | O=C(Nc1cnc(Nc2ccc(S(=O)(=O)NCCN3CCCC3)cc2)nc1)c1cc(O)ccc1Cl [VII, 2-Chloro-5-hydroxy-N-{2-[4-(2-pyrrolidin-1-yl-ethylsulfamoyl)-phenylamino]-pyrimidin-5-yl}-benzamide] |
| 60 | O=C(NCCN1CCCC1)c1ccc(Nc2ncc(NC(=O)c3c(Cl)cccc3Cl)cn2)cc1 [XXVIII, 2,6-Dichloro-N-{2-[4-(2-pyrrolidin-1-yl-ethylcarbamoyl)-phenylamino]-pyrimidin-5-yl}-benzamide] |
| 13 | O=C(NCCN1CCCC1)c1ccc(Nc2ncc(NC(=O)c3cc(O)ccc3Br)cn2)cc1 [XXIII, 2-Bromo-5-hydroxy-N-{2-[4-(2-pyrrolidin-1-yl-ethylcarbamoyl)-phenylamino]-pyrimidin-5-yl}-benzamide] |
| 90 | Cc1cccc(C)c1C(=O)Nc1cnc(Nc2ccc(S(=O)(=O)NCCN3CCCC3)cc2)nc1 [VI, 2,6-Dimethyl-N-{2-[4-(2-pyrrolidin-1-yl-ethylsulfamoyl)-phenylamino]-pyrimidin-5-yl}-benzamide] |
| 1340 | O=C(Nc1cc(O)ccc1Cl)c1cnc(Nc2ccc(OCCN3CCCC3)cc2)nc1C(F)(F)F [XXX, 2-[4-(2-Pyrrolidin-1-yl-ethoxy)-phenylamino]-4-trifluoromethyl-pyrimidine-5-carboxylic acid (2-chloro-5-hydroxy-phenyl)-amide] |

| IC50 [nM] | Compound |
| --- | --- |
| 73 | O=C(Nc1cnc(Nc2ccc(S(=O)(=O)NCCN3CCCC3)cc2)nc1)c1c(Cl)cccc1Cl [III, 2,6-Dichloro-N-{2-[4-(2-pyrrolidin-1-yl-ethylsulfamoyl)-phenylamino]-pyrimidin-5-yl}-benzamide] |
| 1750 | O=C(Nc1cnc(Nc2ccc(S(=O)(=O)CCCN3CCCC3)cc2)nc1)c1cc(Cl)ccc1Cl [XXXVII, 2,5-Dichloro-N-{2-[4-(3-pyrrolidin-1-yl-propane-1-sulfonyl)-phenylamino]-pyrimidin-5-yl}-benzamide] |
| 19 | CC(C)N(CCO)C(=O)c1cccc(Nc2ncc(NC(=O)c3cc(O)ccc3Cl)cn2)c1 [XX, 2-Chloro-5-hydroxy-N-(2-{3-[(2-hydroxy-ethyl)-isopropyl-carbamoyl]-phenylamino}-pyrimidin-5-yl)-benzamide] |
| 1490 | O=C(Nc1cnc(Nc2ccc(S(=O)(=O)CCCN3CCCC3)cc2)nc1)c1cccc(O)c1 [XXXVI, 3-Hydroxy-N-{2-[4-(3-pyrrolidin-1-yl-propane-1-sulfonyl)-phenylamino]-pyrimidin-5-yl}-benzamide] |
| 54 | O=C(Nc1cnc(Nc2ccc(N3CCN(CCO)CC3)nc2)nc1)c1c(Cl)cccc1Cl [XLIX, 2,6-Dichloro-N-(2-{6-[4-(2-hydroxy-ethyl)-piperazin-1-yl]-pyridin-3-ylamino}-pyrimidin-5-yl)-benzamide] |
| 94 | CN1CCN(C(=O)c2ccc(Nc3ncc(NC(=O)c4c(Cl)cccc4Cl)cn3)cc2)CC1 [XIV, 2,6-Dichloro-N-{2-[4-(4-methyl-piperazine-1-carbonyl)-phenylamino]-pyrimidin-5-yl}-benzamide] |
| 119 | O=C(Nc1cnc(Nc2ccc(S(=O)(=O)CCCN3CCCC3)cc2)nc1)c1c(Cl)cccc1Cl [XXXIV, 2,6-Dichloro-N-{2-[4-(3-pyrrolidin-1-yl-pronane-1-sulfonyl)-phenylamino]-pyrimidin-5-yl}-benzamide] |
| 25 | O=C(Nc1cnc(Nc2cccc(OCCN3CCCC3)c2)nc1)c1c(Cl)cccc1Cl [XLIV, N-(2-(3-(2-(Pyrrolidin-1-yl)ethoxy)phenylamino)pyrimidin-5-yl)-2,6-dichlorobenzamide] |
| 8.5 | O=C(NCCN1CCCC1)c1ccc(Nc2ncc(NC(=O)c3cc(O)ccc3Cl)cn2)cc1 [XXV, 2-Chloro-5-hydroxy-N-{2-[4-(2-pyrrolidin-1-yl-ethylcarbamoyl)-phenylamino]-pyrimidin-5-yl}-benzamide] |
| 216 | Cc1c(O)cccc1C(=O)Nc1cnc(Nc2ccc(C(=O)NCCN3CCCC3)cc2)nc1 [XXVII, 3-Hydroxy-2-methyl-N-{2-[4-(2-pyrrolidin-1-yl-ethylcarbamoyl)-phenylamino]-pyrimidin-5-yl}-benzamide] |
| 43 | O=C(Nc1cnc(Nc2cccnc2)nc1)c1cc(O)ccc1Cl [XI, Chloro-5-hydroxy-N-[2-(pyridin-3-ylamino)-pyrimidin-5-yl]-benzamide] |
| 25 | CC(C)N(CCO)C(=O)c1cccc(Nc2ncc(NC(=O)c3c(Cl)cccc3Cl)cn2)c1 [XIX, 2,6-Dichloro-N-(2-{3-[(2-hydroxy-ethyl)-isopropyl-carbamoyl]-phenylamino}-pyrimidin-5-yl)-benzamide] |
| 104 | Cc1cccc(C)c1C(=O)Nc1cnc(Nc2ccc(OCCN3CCCC3)cc2)nc1 [XXXIX, N-(2-(4-(2-(Pyrrolidin-1-yl)ethoxy)phenylamino)pyrimidin-5-yl)-2,6-dimethyl-benzamide] |
| 21 | CN1CCN(C(=O)c2ccc(Nc3ncc(NC(=O)c4cc(O)ccc4Cl)cn3)cc2)CC1 [XVI, 2-Chloro-5-hydroxy-N-{2-[4-(4-methyl-piperazine-1-carbonyl)-phenylamino]-pyrimidin-5-yl}-benzamide] |
| 60 | Clc1cccc(Cl)c1CNc1cnc(Nc2cccc(OCCN3CCCC3)c2)nc1 [LII, N′-(2,6-Dichloro-benzyl)-N-[3-(2-pyrrolidin-1-yl-ethoxy)-phenyl]-pyrimidine-2,5-diamine] |
| 300 | O=C(Nc1cnc(Nc2cccnc2)nc1)c1c(Cl)cccc1Cl [X, 2,6-Dichloro-N-[2-(pyridin-3-ylamino)-pyrimidin-5-yl]-benzamide] |
| 85 | O=C(NCCN1CCCC1)c1ccc(Nc2ncc(NC(=O)c3ccc(O)cc3Cl)cn2)cc1 |
| 2100 | CN(CCN1CCCC1)S(=O)(=O)c1ccc(Nc2ncc(NC(=O)c3c(Cl)cccc3Cl)cn2)cc1 [IV, 2,6-Dichloro-N-(2-[4-[methyl-(2-pyrrolidin-1-yl-ethyl)-sulfamoyl]-phenylamino]-pyrimidin-5-yl)-benzamide] |
